Data published in US8093393B2, “Cationic ceramides, and analogs thereof, and their use for preventing or treating cancer” (MUSC Foundation for Research Development, priority 2004, dated 2012).
Like-named read-outs stand apart in the source and are kept apart here.

What was measured:
UM-SCC12 cells = experiment: MTT cell survival assay; type: cell-based, human; settings: UM-SCC12, 96 hr
Description: (§1) Cell lines and culture conditions. […] Cells were grown in DMEM containing 10% FCS and 1% penicillin/streptomycin at 37° C. in 5% CO2. The Wi-38 human lung fibroblasts were obtained from American Type Culture Collection, and were grown in DMEM as described above. Adult human epidermal keratinocytes were purchased from Cascade Biologics, and were maintained in EpiLife medium with growth supplements as described by the manufacturer.
(§2) MTT cell survival assay and isobologram studies. […] Triplicate wells were used for each treatment. The final concentration of DMSO (a solvent for conventional ceramides, GMZ and DOX) in the growth medium was less than 0.1% (v/v) which has no effect on cell growth and survival. Pyridinium ceramides were dissolved in sterile water or growth medium. In short, after cells (5-10×10^3/well) were seeded in 96-well-plates for 24 hr, they were treated with increasing concentrations of ceramide analogs for an additional 48 or 96 hr. For combination treatments, ceramides and chemotherapeutic agents (gemcitabine (GMZ) or doxorubicin (DOX)) were added to the growth medium simultaneously during treatment. Isobologram plots were then constructed using IC50 values of the two agents alone or in combination obtained from MTT assays. […]

telomerase [1] = experiment: Telomerase activity (TRAP) in treated cells; type: cell-based, human; settings: UM-SCC-22A
Description: (§3) FIGS. 13A to 13B. Roles of CCPS on cell cycle profiles, and telomerase activity of UM-SCC-22A cells. (FIG. 13A) The effects of D-e-C6—, D-e-C12- and L-th-C12-pyridinium ceramides (at 1 μM for 48 hr) on cell cycle profiles of UM-SCC-22A cells were determined and compared to that of untreated cells using flow cytometry as described in Materials and Methods. (FIG. 13B) The effects of 0, 100, 250 and 500 nM L-t-C6-Pyr-Cer (LCL-124) (lanes 1-4, respectively) at 96 hr treatment in UM-SCC-22A cells on telomerase activity was assessed using TRAP assay. Lanes 5 and 6 contain positive (+) and negative (−) controls. To examine whether C6-Pyr-Cer inhibits telomerase activity directly, cell extracts (as shown in lane 1) were incubated in the presence of various concentrations of L-th-C6-Pyr-ceramide (LCL-124; 10, 20 and 100 μM) and telomerase activity was determined using TRAP assay (lanes 7-9, respectively). The presence of non-telomeric 36 bp internal standard (IS) in the TRAP assay serves as a control for polymerase chain reaction, and used for quantitation/normalization of the activity of telomerase. The results shown are representative of at least two independent experiments.
FIGS. 14A to 14D. […] (FIG. 14A) The effects of various chemotherapeutic agents on cell growth in UM-SCC-22A cells were determined using MTT assays, and the IC50 concentrations of each agent were determined from cell growth plots as described. (FIG. 14B) The synergistic effects of DOX and L-th-C6-Pyr-Cer (LCL-124) on cell growth were assessed using isobologram studies as described in Materials and Methods. (FIG. 14C) The effects of 1 μM L-th-C6-Pyr-Cer (LCL-124) or cetyl-pyridinium-bromide, without ceramide conjugate (used as a control) on the growth inhibition potential of GMZ in UM-SCC-22A cells were determined using MTT assays. (FIG. 14D) The effects of GMZ (100 nM), L-th-C6-Pyr-Cer (LCL-124; 1 μM) or GMZ and L-th-C6-Pyr-Cer (LCL-124) (100 nM and 1 μM, respectively) on telomerase activity in UM-SCC-22A cells at 48 hr were examined using TRAP assay, and compared to that of untreated controls (lanes 2, 3, 4 and 1, respectively). The data shown are representative of at least two independent experiments performed in triplicate samples. Standard deviations in each sample were between 0.1-0.5.
Determination of telomerase activity. Telomerase activity in cell extracts was measured by the PCR-based telomere repeat amplification protocol (TRAP) using TRAPeze kit (Intergen, Gaithersburg, Md.) which includes a 36-bp internal control to allow quantification of activity. In short, the intensity of telomere-specific DNA bands, measured using Quantity One (BioRad) software, were normalized to the intensity of internal control bands for each sample on polyacrylamide gels for quantification.

[2] = test system: Wi-38 human lung fibroblasts; experiment: MTT cell survival assay, non-cancerous cells; type: cell-based; settings: Wi-38 fibroblasts, DMEM; read-out: IC50, cell growth in DMEM
Description: as §1
(§4) MTT cell survival assay and isobologram studies. […] Triplicate wells were used for each treatment. The final concentration of DMSO (a solvent for conventional ceramides, GMZ and DOX) in the growth medium was less than 0.1% (v/v) which has no effect on cell growth and survival. Pyridinium ceramides were dissolved in sterile water or growth medium. In short, after cells (5-10×10^3/well) were seeded in 96-well-plates for 24 hr, they were treated with increasing concentrations of ceramide analogs for an additional 48 or 96 hr. For combination treatments, ceramides and chemotherapeutic agents (gemcitabine (GMZ) or doxorubicin (DOX)) were added to the growth medium simultaneously during treatment. Isobologram plots were then constructed using IC50 values of the two agents alone or in combination obtained from MTT assays. A straight line joining points on x- and y-axes represent the IC50 concentrations of two agents, and the points representing the IC50 concentrations of the combination of the two agents are represented as scatter plots on the same graphs.

[3] = test system: adult human epidermal keratinocytes (HEK); experiment: MTT cell survival assay, non-cancerous cells; type: cell-based
Description: as §1, §4

UM-SCC-22A cells [4] = experiment: MTT cell survival assay and isobologram studies; type: cell-based, human
Description: Human head and neck cancer cell lines UM-SCC-1 (retromolar trigone/floor of the mouth), UM-SCC-12 (primary tumor of larynx), and UM-SCC-22A cells were obtained from clinical samples. Cells were grown in DMEM containing 10% FCS and 1% penicillin/streptomycin at 37° C. in 5% CO2.
MTT cell survival assay and isobologram studies. The concentrations of agents that inhibited cell growth by 50% (IC50) were determined from cell survival plots obtained by MTT. Triplicate wells were used for each treatment. The final concentration of DMSO (a solvent for conventional ceramides, GMZ and DOX) in the growth medium was less than 0.1% (v/v) which has no effect on cell growth and survival. Pyridinium ceramides were dissolved in sterile water or growth medium. In short, after cells (5-10×10^3/well) were seeded in 96-well-plates for 24 hr, they were treated with increasing concentrations of ceramide analogs for an additional 48 or 96 hr. For combination treatments, ceramides and chemotherapeutic agents (gemcitabine (GMZ) or doxorubicin (DOX)) were added to the growth medium simultaneously during treatment. Isobologram plots were then constructed using IC50 values of the two agents alone or in combination obtained from MTT assays. A straight line joining points on x- and y-axes represent the IC50 concentrations of two agents, and the points representing the IC50 concentrations of the combination of the two agents are represented as scatter plots on the same graphs. In general, the points that fall within the left of the straight line indicate synergism. The experiments were performed as triplicates in at least 3 independent experiments.
Human head and neck cancer cell lines UM-SCC-1 (retromolar trigone/floor of the mouth), UM-SCC-14A (SCC of anterior floor of the mouth), and UM-SCC-22A (SCC of hypopharynx) cells were obtained. Cells were grown in DMEM containing 10% FCS and 1% penicillin/streptomycin at 37° C. in 5% CO2.
MTT cell survival assay and isobologram studies. The concentrations of agents that inhibited cell growth by 50% (IC50) were determined from cell survival plots obtained by MTT assays. […] In general, the points that fall within the left of the straight line indicate synergism. The experiments were performed as triplicates in at least 3 independent experiments. Error bars represent standard deviations.

UM-SCC-1 cells = experiment: MTT cell survival assay; type: cell-based, human; settings: UM-SCC-1, 96 hr; read-out: IC50, cell survival
Description: as §1, §2

telomerase [5] = target: T1, telomerase (Homo sapiens, UniProt O14746); experiment: Telomerase activity (TRAP), compound applied directly to cell extracts; type: biochemical; settings: 10, 20 and 100 μM
T1 construct: endogenous in cells; host or cells: UM-SCC-22A
T1 sequence (O14746 whole entry): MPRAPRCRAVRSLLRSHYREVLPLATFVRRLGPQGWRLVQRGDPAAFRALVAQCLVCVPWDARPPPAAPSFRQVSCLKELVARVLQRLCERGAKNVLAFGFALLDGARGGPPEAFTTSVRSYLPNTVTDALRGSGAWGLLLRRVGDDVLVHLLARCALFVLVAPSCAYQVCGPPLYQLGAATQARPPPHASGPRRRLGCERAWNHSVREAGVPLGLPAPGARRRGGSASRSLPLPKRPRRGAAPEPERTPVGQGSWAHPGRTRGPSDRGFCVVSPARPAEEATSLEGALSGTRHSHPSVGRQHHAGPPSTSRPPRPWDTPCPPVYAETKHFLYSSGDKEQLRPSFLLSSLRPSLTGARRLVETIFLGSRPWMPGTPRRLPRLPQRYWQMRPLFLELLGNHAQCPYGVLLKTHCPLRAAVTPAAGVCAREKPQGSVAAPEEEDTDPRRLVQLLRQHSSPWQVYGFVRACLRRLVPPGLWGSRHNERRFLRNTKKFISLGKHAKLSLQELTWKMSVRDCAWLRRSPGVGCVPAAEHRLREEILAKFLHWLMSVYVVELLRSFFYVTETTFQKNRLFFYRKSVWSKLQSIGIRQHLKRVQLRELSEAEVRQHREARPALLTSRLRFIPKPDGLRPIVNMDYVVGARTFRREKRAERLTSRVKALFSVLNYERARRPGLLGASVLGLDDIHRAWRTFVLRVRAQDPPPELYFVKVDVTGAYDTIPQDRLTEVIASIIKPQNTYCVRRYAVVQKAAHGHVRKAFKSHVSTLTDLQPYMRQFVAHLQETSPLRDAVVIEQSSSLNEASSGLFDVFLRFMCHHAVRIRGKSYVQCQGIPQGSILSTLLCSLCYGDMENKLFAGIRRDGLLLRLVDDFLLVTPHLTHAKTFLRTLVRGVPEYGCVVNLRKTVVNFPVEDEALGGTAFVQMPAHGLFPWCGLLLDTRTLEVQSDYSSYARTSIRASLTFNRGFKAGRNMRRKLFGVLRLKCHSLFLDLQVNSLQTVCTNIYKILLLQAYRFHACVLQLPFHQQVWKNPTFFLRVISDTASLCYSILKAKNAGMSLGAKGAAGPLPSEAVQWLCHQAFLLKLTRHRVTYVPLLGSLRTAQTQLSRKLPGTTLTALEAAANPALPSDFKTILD
T1 sequence (O60832 whole entry partner): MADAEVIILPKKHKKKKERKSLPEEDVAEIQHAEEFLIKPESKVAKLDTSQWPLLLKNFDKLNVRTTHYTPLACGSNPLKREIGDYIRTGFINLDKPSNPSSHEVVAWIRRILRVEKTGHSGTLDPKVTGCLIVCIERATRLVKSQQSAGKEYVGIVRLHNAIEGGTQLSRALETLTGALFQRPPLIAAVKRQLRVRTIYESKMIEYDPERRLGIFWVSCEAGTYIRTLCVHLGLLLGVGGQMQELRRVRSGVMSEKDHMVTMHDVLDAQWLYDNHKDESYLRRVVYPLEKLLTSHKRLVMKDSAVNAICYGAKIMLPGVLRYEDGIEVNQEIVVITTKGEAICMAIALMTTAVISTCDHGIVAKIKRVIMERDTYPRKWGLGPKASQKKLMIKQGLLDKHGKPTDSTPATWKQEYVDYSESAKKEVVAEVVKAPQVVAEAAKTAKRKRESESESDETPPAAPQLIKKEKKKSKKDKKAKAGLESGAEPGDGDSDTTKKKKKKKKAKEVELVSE
T1 sequence (Q9NPE3 whole entry partner): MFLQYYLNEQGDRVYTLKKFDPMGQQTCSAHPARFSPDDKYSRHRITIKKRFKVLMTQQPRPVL
T1 sequence (Q9NX24 whole entry partner): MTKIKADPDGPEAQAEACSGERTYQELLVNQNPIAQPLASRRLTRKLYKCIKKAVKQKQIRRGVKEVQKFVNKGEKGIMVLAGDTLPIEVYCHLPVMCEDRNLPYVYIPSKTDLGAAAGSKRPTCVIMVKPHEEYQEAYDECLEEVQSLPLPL
T1 sequence (Q9NY12 whole entry partner): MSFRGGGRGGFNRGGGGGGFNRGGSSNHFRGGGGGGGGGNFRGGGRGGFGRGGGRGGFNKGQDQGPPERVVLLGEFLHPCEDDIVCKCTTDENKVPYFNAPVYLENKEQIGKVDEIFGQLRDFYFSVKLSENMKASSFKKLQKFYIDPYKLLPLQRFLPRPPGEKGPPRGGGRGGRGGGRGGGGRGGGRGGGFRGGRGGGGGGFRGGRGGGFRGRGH
T1 sequence (Q9BUR4 whole entry partner): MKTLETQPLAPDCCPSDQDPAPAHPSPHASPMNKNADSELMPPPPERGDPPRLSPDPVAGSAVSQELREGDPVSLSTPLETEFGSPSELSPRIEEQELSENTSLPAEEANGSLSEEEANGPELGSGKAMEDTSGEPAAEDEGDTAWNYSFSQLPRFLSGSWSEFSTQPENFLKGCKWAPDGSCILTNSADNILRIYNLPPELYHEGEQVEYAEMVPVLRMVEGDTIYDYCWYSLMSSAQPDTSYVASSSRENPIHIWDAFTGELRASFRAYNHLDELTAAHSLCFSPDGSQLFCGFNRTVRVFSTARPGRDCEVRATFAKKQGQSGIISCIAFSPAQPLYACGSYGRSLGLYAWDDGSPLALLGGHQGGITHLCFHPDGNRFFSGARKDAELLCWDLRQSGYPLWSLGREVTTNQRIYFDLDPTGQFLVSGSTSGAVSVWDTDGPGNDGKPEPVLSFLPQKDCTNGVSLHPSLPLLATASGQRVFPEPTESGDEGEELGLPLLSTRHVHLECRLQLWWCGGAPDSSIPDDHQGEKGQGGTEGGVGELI
Description: as §3, with “The results shown are representative of at least two independent experiments.” left out
Determination of telomerase activity. Telomerase activity in cell extracts was measured by the PCR-based telomere repeat amplification protocol (TRAP) using TRAPeze kit (Intergen, Gaithersburg, Md.) which includes a 36-bp internal control to allow quantification of activity. […]

UM-SCC-22A cells [6] = experiment: Apoptotic cell death by annexin V staining; type: cell-based, human
Text: Thus, these ceramide analogs appear to exert minimal apoptotic activity on their own, with selective cell cycle arrest in these cells.

MCF7 cells = settings: 5 μM, 5 h
Description: FIGS. 4A-4C show the cellular levels of CCPS analogs. MCF 7 cells were treated with 5 μM concentration of CCPS analogs over the time and cellular level of the nonmetabolized CCPSs was measured by MS methodology as shown under Experimental. Results are expressed as % of concentration applied.
A parallel set of cells was used to determine cell proliferation and to prepare lipid extracts for MS analysis.
Briefly, for the indicated points, media was removed, cells were washed twice with PBS, scraped into cold PBS (2×1.0 ml), transferred to glass vials and centrifuged for 5 min at 800 rpm. Cell pellets corresponding to ˜1×10^6 cells, were fortified with the internal standards IS (C17 base D-erythro-sphingosine: 17Sph, C17 sphingosine-1-phosphate: 17Sph-1P, N-palmitoyl-D-erythro-C13 sphingosine: 13CC16-Cer and N-heptadecanoyl-D-erythro-C17shingosine: 17CC17-Cer) and extracted (2×2 ml) into a one-phase solvent system with ethyl acetate/iso-propanol/water (60/30/10 v/v). One ml of this extract was used for Pi determination after lipid re-extraction by the Bligh and Dyer method. Remaining lipid extract was evaporated, reconstituted in 100 μl of methanol, and samples were injected on the Surveyor/TSQ 7000 LC/MS system and gradient eluted from the BDS Hypersil C8, 150×3.2 mm, 3 μm particle size column, with 1.0 mM methanolic ammonium formate/2 mM aqueous ammonium formate mobile phase system. Peaks corresponding to the target analytes and IS were collected and processed using the Xcalibur software system.
Cellular level of CCPS analogs was established by MS methodology.

[7] = target: T2, dihydroceramide 4,5-desaturase (Homo sapiens, UniProt O15121); experiment: Conversion of dhCCPS analogs to CCPS analogs in MCF7 cells; type: cell-based; settings: MS
T2 construct: dihydroceramide 4,5-desaturase in MCF7 cells to generate the corresponding CCPS analogs; endogenous in cells; host or cells: MCF7
T2 sequence (O15121 1-323): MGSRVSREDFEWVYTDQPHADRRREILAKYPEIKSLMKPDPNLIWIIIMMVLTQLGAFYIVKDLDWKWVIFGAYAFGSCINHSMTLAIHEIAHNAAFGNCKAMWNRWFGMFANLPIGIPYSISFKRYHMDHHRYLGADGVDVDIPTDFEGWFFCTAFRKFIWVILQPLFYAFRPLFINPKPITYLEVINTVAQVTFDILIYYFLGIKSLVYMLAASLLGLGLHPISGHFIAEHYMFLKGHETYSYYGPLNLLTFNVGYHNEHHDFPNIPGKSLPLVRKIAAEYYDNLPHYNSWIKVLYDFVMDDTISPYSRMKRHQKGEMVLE
Text: Absolute levels (pmol) of dhCCPS and CCPS analogs was established by MS approach as shown in the Examples (see Section 6). Data are expressed as changes of particular dhCCPS and CCPS to the total level of dhCCPS+CCPS (100%).

[8] = test system: MCF7 breast carcinoma cells; experiment: Cell proliferation and viability, Trypan blue exclusion assay; type: cell-based; settings: 48 h treatment; read-out: IC50, inhibitory effect on MCF7 cell growth
Outline: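 Cells seeded overnight in 10% FCS, then exposed to LCL compounds at 0-20 μM in ethanol (below 0.1%) for 48 h. Viable cell numbers counted by Trypan blue exclusion under light microscope, expressed as percentage of untreated controls; duplicate samples, two or three independent experiments.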

[9] = Solubility of ceramides and ceramidoids in water
[10] = test system: L929 mouse fibroblast cells; experiment: TNFα-induced PGE2 release; type: cell-based
Text: Interleukin-1 is a major inducer of inflammation and TNF is an important regulator of the reaction. Both cytokines can activate ceramidase, and thus inhibiting the activity of ceramidase can result in an anti-inflammatory effect. This may involve the prevention of the formation of sphingosine and sphingosine phosphate which have pro-inflammatory effects. Also, inhibition of ceramidase may prevent the hyperproliferation of immune cells that are important for inflammation. […] The release of PGE2 is also shown to be inhibited by D-(N-myristolyamino)-1-phenyl-1-propanol), D-MAPP, which is an inhibitor of one of the ceramidase. This observation may be important for inhibiting inflammatory reactions that occur in conditions, such as but not limited to rheumatoid arthritis. Thus, it is possible to treat or prevent inflammation by regulating the level of cellular ceramide using the method of the invention. As discussed above, ceramide level can be increased by administering compounds of the present invention that can inhibit mitochondrial ceramidase.

SMILES: CCCCCCCCCCCCCC=CC(O)C(CO)NC(=O)CCCCC[n+]1ccccc1 (stereo not shown) [C6-Pyr-Cer]
- IC50 (UM-SCC12 cells): 250 to 300 nM
- inhibition of telomerase activity (telomerase [1]; 100 nM, 96 hr): about 30%
- inhibition of telomerase activity (telomerase [1]; 250 nM, 96 hr): ~50%
- inhibition of telomerase activity (telomerase [1]; 500 nM, 96 hr): ~75%
- inhibition of telomerase activity (telomerase [1]; 48 hr, C6-Pyr-Cer 1 μM, GMZ 100 nM): 30%
- IC50 [2]: > 1000 nM
- IC50 ([3]; HEK, EpiLife medium, 96 hr, read-out: IC50, cell growth in EpiLife medium): > 2000 nM
- IC50 ([3]; keratinocytes, DMEM, read-out: IC50, cell growth in DMEM): > 1000 nM
- effect on the growth inhibition by GMZ (UM-SCC-22A cells [4]; UM-SCC-22A, 1 μM with various concentrations of GMZ, 48 hr): enhanced the anti-proliferative effects of GMZ
- interaction with DOX, isobologram (UM-SCC-22A cells [4]; UM-SCC-22A, 25, 50 and 100 nM with DOX, 96 hr): decreased growth synergistically
- fold more effective in inhibiting cell growth than conventional C6-ceramides (UM-SCC-22A cells [4]; UM-SCC-22A, 96 hr): > 4 fold
- optimum concentration for synergistic interaction with DOX (UM-SCC-22A cells [4]; UM-SCC-22A, 96 hr): 50 nM
- IC50 (UM-SCC-22A cells [4]; UM-SCC-22A, 96 hr, DMEM, read-out: IC50, cell growth): ~300 nM
- IC50 (UM-SCC-22A cells [4]; UM-SCC-22A, EpiLife medium, 96 hr, read-out: IC50, cell growth in EpiLife medium): > 2000 nM
- fold more effective in squamous cell carcinoma cells than in non-cancerous fibroblasts or keratinocytes (UM-SCC-22A cells [4]; in vitro): > 4 fold
- IC50 (UM-SCC-1 cells): 250 to 300 nM
- effect on telomerase activity when applied directly to the extracts (telomerase [5]): no significant effect on telomerase activity
- apoptotic cell death, annexin V staining (UM-SCC-22A cells [6]): did not show any detectable signal

SMILES: CCCCCCCCCCCCCCC[C@@H](O)[C@H](CO)NC(=O)CCCCCCCCCCC[n+]1ccccc1.[Br-] [LCL249, D-erythro-2-N-[12′-(1″-Pyridinium)-dodecanoyl]-4,5-dihydrosphingosine Bromide]
- Cellular level, % of concentration applied (MCF7 cells): 7%
- metabolism of dhCCPS to the corresponding CCPS analog [7]: time dependent formation of C12-CCPS (LCL88)

SMILES: CCCCCCCCCCCCCCC[C@@H](O)[C@H](CO)NC(=O)CCCCCCCCCCCCCCC[n+]1ccccc1.[Br-] [LCL345, D-erythro-2-N-[16′-(1″-Pyridinium)-hexadecanoyl]-4,5-dihydrosphingosine Bromide]
- IC50 [8]: 2500 nM
- Cellular level, % of concentration applied (MCF7 cells): 4%
- metabolism of dhCCPS to the corresponding CCPS analog [7]: time dependent formation of C16-CCPS (LCL30)
- Solubility at 22° C. ([9]; 22° C.): 300 µg/mL
- Solubility at 22° C. ([mM]) ([9]; 22° C.): (0.42) mM
- Solubility at 37° C. ([9]; 37° C.): 1400 µg/mL
- Solubility at 37° C. ([mM]) ([9]; 37° C.): (2.0) mM

SMILES: CCCCCCCCCCCCCC(=O)NC(C)C(O)c1ccccc1 [D-MAPP]
- release of PGE2 [10]: inhibited
